# Data reported in patent US4584312A, “Substituted 2,3,4,9-tetrahydro-1H-carbazole-1-acetic acid, compositions and use” (American Home Products Corporation, priority 1985, dated 1986).
# Columns and labels:
# [1] = test system: Freund's complete adjuvant hind paw edema; assay: Preventative Adjuvant Edema; assay type: in vivo, rat (Male Sprague Dawley); conditions: 25 mg/kg, p.o.; rats; hind paw edema volume day 0 to day 3; dosed day 0, 1 and 2
# Procedure: This test is a primary screen for anti-inflammatory drugs.
# Male Sprague Dawley rats (180-200 g) are used. The animals have free access water but food is withdrawn 18 hours before testing.
# Freund's complete adjuvant is prepared by suspending 5 mg killed and dried Mycobacterium butyricum (Difco) in 1 ml liquid paraffin. The test compounds are dissolved in distilled water or suspended in distilled water with a few drops of Tween 80 according to their solubility. […]
# The method is essentially that described by Wax et al., J. Pharmacol. Exp. Ther., 192, 166-171 (1975). Groups of rats are injected intradermally in the left hind paw with 0.1 ml of Freund's complete adjuvant. The test compound or vehicle is administered immediately before the adjuvant, 24 hours and 48 hours after the adjuvant (day 0, 1 and 2). The injected hind paw volume is measured before the injection of adjuvant and 24 hrs. after the last drug administration (day 3) by means of a plethysmometer (Buxco Electronics Inc.). The difference between the hind paw volume on day 0 and day 3 represents the edema volume. Phenylbutazone (50 mg/kg, p.o.) is included as a positive control.
# The mean edema volume (expressed as ml±SEM) IS calculated for each group and the percentage protection conferred by the drug is calculated: [formula] where c is the mean edema volume for the untreated controls and t is the mean edema volume for the drug treated group.
# [2] = test system: phenylquinone-induced writhing; assay: Phenylquinone Writhing in Mice; assay type: in vivo, mouse (Male Swiss albino); conditions: 25 mg/kg, p.o., phenylquinone i.p. 60 minutes after dosing, writhes counted over 15 min
# Procedure: A further test used to determine the utility of the compounds of the present invention is designated: DRUG EFFECTS ON PHENYLQUINONEINDUCED WRITHING IN MICE
# The objective of this test is to determine the ability of test drugs to inhibit the nociceptive (pain) response of mice injected with a chemical irritant. This test is a primary screen for both peripheral and centrally acting analgesic drugs.
# Male Swiss albino mice (15-25 g). The animals are fasted for 18 hours prior to use but have free access to water.
# Drugs are dissolved or suspended according to their solubility in 0.5% methyl cellulose or 0.5% Tween 80. They are administered by gastric lavage in a volume of 5 ml/kg. For primary screening all drugs are administered at the arbitary dosage of 200 mg/kg, p.o. to a group of 10 mice.
# A modification of the method of Siegmund et al., Proc. Soc. Exp. Biol. Med., 95, 729-731 (1957) is used. Groups of 5 mice are dosed with the test compound or vehicle control. Sixty minutes later the animals are injected i.p. with 0.3 ml/20 g body weight of a 0.02% solution of phenylquinone (PBQ; 2-phenyl-1,4-benzoquinone) and placed in individual observation boxes. The number of writhing or abdominal squirming movements made by each mouse during the following 15 min. period is counted. The experiment is repeated with another group of 5 mice and the mean number of writhes per mouse for a group of 10 mice is calculated.
# Drug treated and vehicle-treated control groups are compared and the percentage protection conferred by the drug is calculated: [formula] where c=mean number of writhes in the control group where t=mean number of writhes in the test drug group
Compound,% Inhibition (Preventative Adjuvant Edema) [1] [%],% Inhibition (Phenylquinone Writhing in Mice) [2] [%]
"CCc1cccc2c3c([nH]c12)C(CC)(CC(=O)O)CCC3C1CC1 (single isomer, unassigned) [Example 1 f Isomer B, 4-Cyclopropyl-1,8-diethyl-2,3,4,9-tetrahydro-1H-carbazole-1-acetic Acid]",12,49
"CCc1cccc2c3c([nH]c12)C(CC)(CC(=O)O)CCC3C1CCCC1 (single isomer, unassigned) [Example 2 c Isomer B, 4-Cyclopentyl-1,8-diethyl-2,3,4,9-tetrahydro-1H-carbazole-1-acetic acid]",0,17
"CCc1cccc2c3c([nH]c12)C(CC)(CC(=O)O)CCC3C1CCCC1 (single isomer, unassigned) [Example 2 d Isomer A, 4-cyclopentyl-1,8-diethyl-2,3,4,9-tetrahydro-1H-carbazole-1-acetic acid]",0,35
"CCc1cccc2c3c([nH]c12)C(CC)(CC(=O)O)CCC3C1CC1 (single isomer, unassigned) [Example 1 f Isomer A, 4-Cyclopropyl-1,8-diethyl-2,3,4,9-tetrahydro-1H-carbazole-1-acetic Acid]",0,31
